For test [1], the system named is KATO-III cell line (FGFR2 amplification). Kind of test: Cancer cell line cell viability assay (Cell Titer-Glo), 72 hr. Format: cell-based. The note with it: Homo sapiens, KATO III. The essentials: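 Following overnight attachment, each line receives compound in triplicate across nine 4-fold dilutions starting at 3 μM, with DMSO backfill for equal solvent. Luminescence after Cell Titer-Glo 2.0 addition gives percent viability versus DMSO control, fitted by 4-parameter logistic for IC50.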
Background: In ATP-based viability assays light output follows the ATP content of the culture.

Test [2] deals with KG-1 cell line (FGFR 1-fusion). The description is as above. The format is cell-based. The note with it: Homo sapiens, KG-1, KG-1 cell line (FGFR1-fusion). Summed up:
(§1)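 ATP-based luminescence (Cell Titer-Glo 2.0) measured viability after 72 h (KG-1, RT112/84) or 120 h (MDA-MB-453, HuH7) compound exposure. Dosing was nine 4-fold steps starting at 3 μM, in triplicate, on overnight-plated cells. IC50 came from a variable-slope 4-parameter fit of % DMSO control.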

Test [3] relates to RT112/84 cell line (FGFR3-fusion). The test is described as above. The format is cell-based. The conditions noted are these: Homo sapiens, RT112/84, RT112/84 cell line (FGFR3-fusion). The essentials: as §1
The test system of test [4] is HuH7 cell line (FGF19 amplification). Kind of test: Cancer cell line cell viability assay (Cell Titer-Glo), 120 hr. Format: cell-based. The note with it: Homo sapiens, Huh-7. Summed up: as §1
The target of test [5] is T1, FGFR1 (Homo sapiens, UniProt P11362).
T1 construct: made in house; host or cells: E. coli (BL21-derived), T7 phage
T1 sequence (P11362 22-822): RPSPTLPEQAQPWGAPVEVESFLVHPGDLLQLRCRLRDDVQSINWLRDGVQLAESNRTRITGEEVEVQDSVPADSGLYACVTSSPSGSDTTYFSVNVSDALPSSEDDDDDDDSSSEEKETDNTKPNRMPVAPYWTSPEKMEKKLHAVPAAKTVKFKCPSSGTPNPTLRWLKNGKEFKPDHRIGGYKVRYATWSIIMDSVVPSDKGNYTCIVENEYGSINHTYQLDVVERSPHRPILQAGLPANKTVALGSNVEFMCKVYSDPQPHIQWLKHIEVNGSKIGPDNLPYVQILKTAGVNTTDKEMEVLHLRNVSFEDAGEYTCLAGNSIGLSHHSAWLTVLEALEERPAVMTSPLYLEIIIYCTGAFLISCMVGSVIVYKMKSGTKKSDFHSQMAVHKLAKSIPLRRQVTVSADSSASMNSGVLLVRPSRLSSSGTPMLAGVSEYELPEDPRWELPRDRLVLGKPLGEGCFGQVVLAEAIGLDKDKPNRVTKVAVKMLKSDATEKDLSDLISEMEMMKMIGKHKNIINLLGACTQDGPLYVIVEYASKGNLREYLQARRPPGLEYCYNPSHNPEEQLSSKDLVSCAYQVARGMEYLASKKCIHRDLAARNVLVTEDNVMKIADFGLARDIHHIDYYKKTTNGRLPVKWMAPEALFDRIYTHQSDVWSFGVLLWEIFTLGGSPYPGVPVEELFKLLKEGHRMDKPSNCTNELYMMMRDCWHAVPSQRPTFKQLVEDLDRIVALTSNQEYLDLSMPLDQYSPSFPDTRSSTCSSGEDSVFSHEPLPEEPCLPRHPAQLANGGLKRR
The test can be described thus: Kinase binding assay (kinase-tagged T7 phage, affinity beads, qPCR), Kd. The conditions noted are these: read-out: FGFR1 (Kd nM). Summed up:
(§2)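 Kd obtained by Levenberg–Marquardt Hill-equation fit (slope −1) to qPCR-measured kinase retained on ligand-coated streptavidin beads.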

In test [6] the target is T2, FGFR2 (Homo sapiens, UniProt P21802).
T2 construct: made in house; host or cells: E. coli (BL21-derived), T7 phage
T2 sequence (P21802 22-821): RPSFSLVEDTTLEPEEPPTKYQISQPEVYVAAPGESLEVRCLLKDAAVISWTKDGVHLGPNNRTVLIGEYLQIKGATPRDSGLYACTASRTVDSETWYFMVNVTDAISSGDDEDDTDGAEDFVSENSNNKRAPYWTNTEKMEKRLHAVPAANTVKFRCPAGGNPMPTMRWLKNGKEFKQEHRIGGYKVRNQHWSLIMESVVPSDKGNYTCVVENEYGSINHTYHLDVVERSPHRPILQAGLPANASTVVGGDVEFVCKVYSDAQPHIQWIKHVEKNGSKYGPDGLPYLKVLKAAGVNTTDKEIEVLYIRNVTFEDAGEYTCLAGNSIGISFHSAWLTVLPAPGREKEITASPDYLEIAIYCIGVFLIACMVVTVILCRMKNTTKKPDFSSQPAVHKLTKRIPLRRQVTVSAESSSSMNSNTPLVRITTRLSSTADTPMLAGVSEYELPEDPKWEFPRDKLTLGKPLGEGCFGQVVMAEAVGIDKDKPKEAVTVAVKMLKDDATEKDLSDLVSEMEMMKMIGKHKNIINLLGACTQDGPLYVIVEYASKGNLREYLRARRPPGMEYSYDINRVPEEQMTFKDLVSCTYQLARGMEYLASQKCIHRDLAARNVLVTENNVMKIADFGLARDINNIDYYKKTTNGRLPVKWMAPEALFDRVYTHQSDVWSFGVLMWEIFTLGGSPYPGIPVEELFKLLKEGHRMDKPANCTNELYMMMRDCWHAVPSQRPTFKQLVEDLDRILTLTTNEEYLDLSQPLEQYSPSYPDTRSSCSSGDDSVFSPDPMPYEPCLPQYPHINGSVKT
The test is described as above. The note with it: read-out: FGFR2 (Kd nM). The essentials: as §2

Test [7] deals with T3, FGFR3 (Homo sapiens, UniProt P22607).
T3 construct: made in house; host or cells: E. coli (BL21-derived), T7 phage
T3 sequence (P22607 23-806): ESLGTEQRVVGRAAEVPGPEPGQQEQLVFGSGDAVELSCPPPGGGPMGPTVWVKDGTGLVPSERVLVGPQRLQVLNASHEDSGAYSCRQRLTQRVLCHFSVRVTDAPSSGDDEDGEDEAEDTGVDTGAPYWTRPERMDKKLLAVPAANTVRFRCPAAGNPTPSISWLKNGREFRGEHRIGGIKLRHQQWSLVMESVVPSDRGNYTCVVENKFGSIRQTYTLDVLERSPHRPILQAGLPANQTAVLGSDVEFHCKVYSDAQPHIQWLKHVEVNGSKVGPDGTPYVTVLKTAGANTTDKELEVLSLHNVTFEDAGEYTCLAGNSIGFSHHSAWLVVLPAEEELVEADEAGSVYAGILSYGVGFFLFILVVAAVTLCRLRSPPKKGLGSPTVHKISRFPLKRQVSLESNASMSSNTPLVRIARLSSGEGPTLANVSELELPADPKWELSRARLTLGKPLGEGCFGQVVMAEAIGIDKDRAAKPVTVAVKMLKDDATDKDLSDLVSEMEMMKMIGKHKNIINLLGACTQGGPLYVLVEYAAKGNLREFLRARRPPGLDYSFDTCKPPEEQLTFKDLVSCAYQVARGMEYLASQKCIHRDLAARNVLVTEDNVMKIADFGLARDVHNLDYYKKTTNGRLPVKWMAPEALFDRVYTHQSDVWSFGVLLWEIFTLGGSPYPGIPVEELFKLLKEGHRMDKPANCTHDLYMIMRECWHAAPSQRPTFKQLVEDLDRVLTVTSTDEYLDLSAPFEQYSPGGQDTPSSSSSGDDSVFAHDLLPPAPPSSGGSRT
The test is described as above. The conditions noted are these: read-out: FGFR3 (Kd nM). Summed up:
as §2

Test [8] deals with T4, FGFR3 (V555M) (Homo sapiens, UniProt P22607, V555M).
T4 construct: made in house; host or cells: E. coli (BL21-derived), T7 phage
T4 sequence (P22607 23-806 V555M): as the sequence (P22607 23-806) above, with V533M counted along it
The test is described as above. The note with it: V555M mutant; read-out: FGFR3 (V555M) (Kd nM). The essentials:
as §2

Test [9] addresses T5, FGFR4 (Homo sapiens, UniProt P22455).
T5 construct: made in house; host or cells: E. coli (BL21-derived), T7 phage
Described as above. The conditions noted are these: read-out: FGFR4 (Kd nM). Summed up:
as §2

In patent US20250368666A1, “INDAZOLE COMPOUNDS” (TYRA BIOSCIENCES, INC., priority 2022, published 2025) one finds IC50 and Kd data, which are given here for 12 molecules.

As usually defined, the IC50 is the midpoint of a concentration-inhibition curve. A high value points to a need for much substance. A word on the Kd: it is a measure of binding affinity in units of concentration.

T5 sequence (P22455 22-802): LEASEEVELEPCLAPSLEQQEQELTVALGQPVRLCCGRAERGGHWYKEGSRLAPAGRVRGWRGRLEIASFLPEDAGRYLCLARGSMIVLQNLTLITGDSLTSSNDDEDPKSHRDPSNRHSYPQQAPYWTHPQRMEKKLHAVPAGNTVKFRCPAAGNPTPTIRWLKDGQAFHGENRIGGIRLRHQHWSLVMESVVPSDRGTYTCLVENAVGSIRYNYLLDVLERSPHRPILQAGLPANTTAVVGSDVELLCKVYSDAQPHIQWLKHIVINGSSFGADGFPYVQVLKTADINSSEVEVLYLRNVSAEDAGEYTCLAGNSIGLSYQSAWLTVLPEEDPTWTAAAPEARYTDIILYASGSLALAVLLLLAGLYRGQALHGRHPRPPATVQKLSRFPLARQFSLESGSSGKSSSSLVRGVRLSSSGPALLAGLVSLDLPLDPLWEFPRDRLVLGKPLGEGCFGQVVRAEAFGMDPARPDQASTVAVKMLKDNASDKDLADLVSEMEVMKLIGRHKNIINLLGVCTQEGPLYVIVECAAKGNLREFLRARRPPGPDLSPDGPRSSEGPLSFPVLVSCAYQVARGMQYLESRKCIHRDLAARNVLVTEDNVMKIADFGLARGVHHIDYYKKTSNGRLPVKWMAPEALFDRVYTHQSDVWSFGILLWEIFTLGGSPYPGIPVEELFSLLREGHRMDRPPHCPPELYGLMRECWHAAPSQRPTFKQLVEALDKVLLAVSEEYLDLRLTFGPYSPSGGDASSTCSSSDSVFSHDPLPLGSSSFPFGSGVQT

Consider `C[C@@H](Oc1cc2c(-c3cnc(N4CC(C)(NCCO)C4)c(C#N)c3)n[nH]c2cc1F)c1c(Cl)cncc1Cl` [Example 129, (R)-5-(5-(1-(3,5-dichloropyridin-4-yl)ethoxy)-6-fluoro-1H-indazol-3-yl)-2-(3-((2-hydroxyethyl)amino)-3-methylazetidin-1-yl)nicotinonitrile], for which the IC50 lay in the range of 200 to 1000 nM in test [1], 200 to 1000 nM in [2], 50 to 200 nM in test [3] and 50 to 200 nM in test [4].

With `C[C@@H](Oc1cc2c(-c3cnc(N4CC(C)(N5CCC5)C4)c(C#N)c3)n[nH]c2cc1F)c1c(Cl)cncc1Cl` [Example 136, (R)-5-(5-(1-(3,5-dichloropyridin-4-yl)ethoxy)-6-fluoro-1H-indazol-3-yl)-2-(3′-methyl-[1,3′-biazetidin]-1′-yl)nicotinonitrile], the Kd in [5], in test [6], in test [7], in test [8] and in test [9] was 1 to 50 nM in each case. Besides, the IC50 in [4] was 50 to 200 nM.

For the molecule `C[C@@H](Oc1cc2c(-c3cnc(N4CC(C)(CN5CCOCC5)C4)c(C#N)c3)n[nH]c2cc1F)c1c(Cl)cncc1Cl` [Example 137, (R)-5-(5-(1-(3,5-dichloropyridin-4-yl)ethoxy)-6-fluoro-1H-indazol-3-yl)-2-(3-methyl-3-(morpholinomethyl)aze-tidin-1-yl)nicotinonitrile], the Kd in test [5] is 50 to 300 nM; in test [6] it was 50 to 300 nM; in [7] it was 1 to 50 nM; in [8] it was 1 to 50 nM; in test [9], 1 to 50 nM. In addition, the IC50 in test [4] is 50 to 200 nM.

`COc1cc2[nH]nc(-c3cnc(N4CC(CC#N)(NC(C)C)C4)c(C#N)c3)c2cc1O[C@H](C)c1c(Cl)cncc1Cl` [Example 152, (R)-2-(3-(cyanomethyl)-3-(isopropylamino)azetidin-1-yl)-5-(5-(1-(3,5-dichloropyridin-4-yl)ethoxy)-6-methoxy-1H-indazol-3-yl)nicotinonitrile]: the Kd in test [5], in test [6], in test [7] and in [9] was 1 to 50 nM each time. For the same molecule, the IC50 lay within 50 to 200 nM in test [1], 200 to 1000 nM in [2], 0.1 to 50 nM in test [3] and 0.1 to 50 nM in test [4].

For `CNC1(CC#N)CN(c2ncc(-c3n[nH]c4cc(OC)c(O[C@H](C)c5c(Cl)cncc5Cl)cc34)cc2C#N)C1` [Example 153, (R)-2-(3-(cyanomethyl)-3-(methylamino)azetidin-1-yl)-5-(5-(1-(3,5-dichloropyridin-4-yl)ethoxy)-6-methoxy-1H-indazol-3-yl)nicotinonitrile], the Kd in [5], in test [6], in test [7] and in [9] was 1 to 50 nM each time. Also, the IC50 fell in the range of 0.1 to 50 nM in test [1], 50 to 200 nM in test [2], 0.1 to 50 nM in [3] and 0.1 to 50 nM in test [4].

In the case of `COc1cc2[nH]nc(-c3cnc(N4CC(C)(NC(C)C)C4)c(C#N)c3)c2cc1O[C@@H](C)c1c(Cl)cncc1Cl` [Example 330, (S)-5-(5-(1-(3,5-dichloropyridin-4-yl)ethoxy)-6-methoxy-1H-indazol-3-yl)-2-(3-(isopropylamino)-3-methylazetidin-1-yl)nicotinonitrile], the Kd in test [5] was 300 to 1000 nM; in test [6], 300 to 1000 nM; in test [7] it was 50 to 300 nM; in test [8], 50 to 300 nM; in [9], 1 to 50 nM. Also, in [4], the IC50 was in the range of 200 to 1000 nM.

Turning to `COc1cc2[nH]nc(-c3cnc(N4CC(C)(NCC(C)(C)O)C4)c(C#N)c3)c2cc1O[C@@H](C)c1c(Cl)cncc1Cl` [Example 331, (S)-5-(5-(1-(3,5-dichloropyridin-4-yl)ethoxy)-6-methoxy-1H-indazol-3-yl)-2-(3-((2-hydroxy-2-methylpro-pyl)amino)-3-methylazetidin-1-yl)nicotinonitrile], the Kd was 300 to 1000 nM in test [5]; 300 to 1000 nM in test [6]; 50 to 300 nM in [7]; 50 to 300 nM in [8]; 1 to 50 nM in test [9]. The molecule also displayed an IC50 in test [4] of 200 to 1000 nM.

`COc1cc2[nH]nc(-c3cnc(N4CC(C)(CS(C)(=O)=O)C4)c(C#N)c3)c2cc1O[C@@H](C)c1c(Cl)cncc1Cl` [Example 332, (S)-5-(5-(1-(3,5-dichloropyridin-4-yl)ethoxy)-6-methoxy-1H-indazol-3-yl)-2-(3-methyl-3-((methyl-sulfonyl)meth-yl)azetidin-1-yl)nicotinonitrile]: the Kd in [5] was over 1000 nM; in [6] it was over 1000 nM; in test [7] it was 300 to 1000 nM; in test [8], 300 to 1000 nM; in test [9], 1 to 50 nM. Also, in test [4], the IC50 fell in the range of 200 to 1000 nM.

Regarding `COc1cc2[nH]nc(-c3cnc(N4CC(C)(NCC5CC5)C4)c(C#N)c3)c2cc1O[C@@H](C)c1c(Cl)cncc1Cl` [Example 333, (S)-2-(3-((cyclopropyl-methyl)amino)-3-methylazetidin-1-yl)-5-(5-(1-(3,5-dichloropyridin-4-yl)ethoxy)-6-methoxy-1H-indazol-3-yl)nicotinonitrile], the Kd in test [5] is 300 to 1000 nM; in [6] it was over 1000 nM; in test [7], 50 to 300 nM; in test [8], 50 to 300 nM; in test [9] it was 1 to 50 nM. The IC50 in test [4] is 200 to 1000 nM.

Take `COc1cc2[nH]nc(-c3cnc(N4C[C@H](CS(C)(=O)=O)[C@H]4C)c(C#N)c3)c2cc1O[C@@H](C)c1c(Cl)cncc1Cl` [Example 335, 5-(5-((S)-1-(3,5-dichloropyridin-4-yl)ethoxy)-6-methoxy-1H-indazol-3-yl)-2-((2R,3S)-2-methyl-3-((meth-ylsulfonyl)meth-yl)azetidin-1-yl)nicotinonitrile]: the Kd in test [5] is over 1000 nM; in test [6] it was over 1000 nM; in test [7], 300 to 1000 nM; in [8] it was 300 to 1000 nM; in test [9] it was 1 to 50 nM. Further, the IC50 in test [4] was 200 to 1000 nM.

As for `COc1cc2[nH]nc(-c3cnc(N4CC(C)(N5C[C@@H]6C[C@H]5CO6)C4)c(C#N)c3)c2cc1O[C@H](C)c1c(Cl)cncc1Cl` [Example 336, -(3-((1S,4S)-2-oxa-5-aza-bicyclo[2.2.1]hep-tan-5-y1)-3-methylazetidin-1-yl)-5-(5-((R)-1-(3,5-dichloropyridin-4-yl)ethoxy)-6-methoxy-1H-indazol-3-yl)nicotinonitrile], the Kd in test [5], in test [6], in test [7], in test [8] and in test [9] was 1 to 50 nM each time. Also, in test [4], the IC50 lay within 0.1 to 50 nM.

In the case of `COc1cc2[nH]nc(-c3cnc(N4CC(C)(NC(=O)CN(C)C)C4)c(C#N)c3)c2cc1O[C@H](C)c1c(Cl)cncc1Cl` [Example 340, (R)-N-(1-(3-cyano-5-(5-(1-(3,5-dichloropyridin-4-yl)ethoxy)-6-methoxy-1H-indazol-3-yl)pyridin-2-yl)-3-methylazetidin-3-yl)-2-(dimethylamino)-acetamide], the Kd in test [5], in [6] and in [9] was 1 to 50 nM each time. Further, the IC50 in [1] was 50 to 200 nM; in test [2] it was 50 to 200 nM; in [3], 0.1 to 50 nM; in test [4], 0.1 to 50 nM.
